# According to US6967075B2 (priority 2000, dated 2005):
# Entries after “also recorded” stand apart in the source; their conditions may differ.
# Molecular target: T1, HCV NS5B (Hepatitis C virus genotype 1b, UniProt P26663)
# Experiment: not given
# Assay type: biochemical
# Details: not given
# Target sequence in this assay (P26663 2420-2989 limits assumed): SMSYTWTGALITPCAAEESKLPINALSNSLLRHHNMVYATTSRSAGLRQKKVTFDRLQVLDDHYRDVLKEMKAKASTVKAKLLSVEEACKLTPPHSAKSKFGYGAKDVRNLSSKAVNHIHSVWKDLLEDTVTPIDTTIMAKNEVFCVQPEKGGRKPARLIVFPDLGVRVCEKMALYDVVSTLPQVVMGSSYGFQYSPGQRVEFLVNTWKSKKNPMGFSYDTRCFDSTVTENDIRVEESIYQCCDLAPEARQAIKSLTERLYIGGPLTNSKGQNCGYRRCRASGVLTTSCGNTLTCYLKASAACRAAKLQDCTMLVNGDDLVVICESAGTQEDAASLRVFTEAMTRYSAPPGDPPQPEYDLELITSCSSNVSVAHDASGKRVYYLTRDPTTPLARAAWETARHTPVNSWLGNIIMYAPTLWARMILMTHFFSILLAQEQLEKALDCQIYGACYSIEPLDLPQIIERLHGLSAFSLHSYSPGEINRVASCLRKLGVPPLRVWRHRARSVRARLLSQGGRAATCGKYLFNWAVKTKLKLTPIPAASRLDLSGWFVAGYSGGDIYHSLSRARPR
row,Molecule,extension/utilization of end-labeled RNA
1,"5′ GCA UGG GCC C 3′ [sym/sub RNA, reference compound]",no primer extension was observed

# Molecular target: T1, HCV NS5B
# Experiment: Nucleotide incorporation assay using end-labeled primers
# Assay type: biochemical
# Details: 5 μM template, 10 μM end-labeled primer, 100 μM NTP, 30° C. for 30 min
# Experimental: Nucleotide incorporation assay using end-labeled primers. A standard nucleotide incorporation reaction was performed in a 20 μl volume, containing 50 mM HEPES (pH 7.3), 10 mM β-mecaptoethanol, 50 mM NaCl, 5 mM MgCl2, 5 μM of template RNA, 10 μM of end-labeled primer, 3 to 5 μM of polymerase protein and 100 μM of NTP substrate, as described. Single nucleotide incorporation by HCV replicase was tested using radiolabeled diguanylate (^33pGpG) as a primer and three RNA templates corresponding to SEQ ID NO: 11 [(ACC)7], SEQ ID NO: 9 [(tJCC)7], and SEQ ID NO: 10 [(GCC)7]. Reactions involved ^33pGpG primer alone and with (1) (ACC)7 RNA as the template plus either no NTP, 100 μM UTP or 100 μM ATP, (2) (UCC)7 RNA as the template plus either no NTP, 100 μM ATP or 100 μM CTP, and (3) (GCC)7 RNA as the template plus either no NTP, 100 μM CTP or 100 μM ATP. To show the efficiency of guanylate primers of different length in priming nucleotide incorporation, four template-primer pairs were tested in a standard primer-extension assay: […] (SEQ ID NO: 10)/^33pGG; […] (SEQ ID NO: 12)/^33pGGG; […],(SEQ ID NO-13)/^33pGGGG (SEQ ID NO: 32); and […] (SEQ ID NO: 7)/^33pGpqGG (SEQ ID NO: 33). Reactions were performed using 100 μM of CTP or without a nucleotide substrate.
# Reactions contained (UCC)7 alone, (UCC)7 plus 100 μM of ATP, (UCC)6AAA alone, or (UCC)6AAA plus 100 μM of ATP. In addition, RNAs of SEQ ID NOS: 11, 30 and 31 were tested for single-nucleotide incorporation with ^33pGpG as the primer.
# To show the minimum length requirement for a template RNA of the invention RNA templates of decreasing length (21 to 4-nt), e.g., SEQ ID NOS: 8 and 14-20 were tested for the ability to direct single-nucleotide incorporation using ^33pGpG as the primer. All reactions contained 100 μM of ATP and one template RNA. Multiple cycles of nucleotide incorporation were performed using a 10-mer RNA and ^33pGpG as the primer. Reactions contained either 100 μM of ATP alone, or 100 μM each of ATP and CTP, or 100 μM each of ATP, CTP and GTP. The reactions were quenched at different times from 15 to 900 seconds.
# Various dinucleotide primers for RNA synthesis and nucleotide incorporation using HCV 3′ terminal sequences as template were used. The following RNA templates were used: 5′ AAAAAACAGUCC 3′ (SEQ ID NO: 17), 5′ AAAACAGUGC 3′ (SEQ ID NO: 21), 5′ AAAAAACAGUCG 3′ (SEQ ID NO: 22), 5′ AAAAAACAGUGG 3′ (SEQ ID NO: 23), 5′ AAAAAACAGUAC 3′ (SEQ ID NO: 24), 5′ AAAAAACAGUCA 3′ (SEQ ID NO: 25), which differ by two residues at the 3′ terminal positions. Dinucleotide primers, ^33pGpG, ^33pGpC, ^33pCpG, ^33pCpC, ^33pGpU and ^33pUpG, were paired with respective templates in the absence or presence of 100 μM ATP substrate. RNA templates, 3′(+) and 3′(−), consisted of the 3′ terminal sequences of positive-strand and negative-strand HCV genome, respectively. Primers ^33pApC and ^33pGpC were used for 3′(+) and 3′(−) RNA, respectively, in the absence of nucleotide substrate and in the presence of ATP or CTP.
# Reaction mixtures were incubated at 30° C. for 30 min, followed by phenol and chloroform extraction and ethanol precipitation in the presence of glycogen carrier. Product was dissolved in a urea/TBE sample buffer (Novex, San Diego, Calif.) and separated on a 23 to 25% PAGE/6 M Urea/1× TBE gel. The gel was then covered with plastic wrap and exposed to an X-ray film.
row,Molecule,nucleotide incorporation (extension of end-labeled primer)
1,"5′ GCCGCCGCCGCCGCCGCCGCC 3′ (GCCGCCGCCGCCGCCGCCGCC; RNA, backbone not given here) [(GCC)7]","only the correct nucleotide, ATP or CTP, resulted in primer extension"
2,"5′ CC ACC ACC ACC ACC ACC ACCA 3′ (CCACCACCACCACCACCACCA; RNA, backbone not given here) [SEQ ID NO: 30]",significant reduction in activity
3,"5′ C ACCACCACCACCACCACCAC 3′ (CACCACCACCACCACCACCAC; RNA, backbone not given here) [SEQ ID NO: 31]",significant reduction in activity
4,GGG [^33pGGG],supported nucleotide incorporation with the highest efficiency
5,pGpG [GG],capable of priming nucleotide (AMP) incorporation
6,"GGGG (5' 33P label, further chemistry not given here) [^33pGGGG]",detrimental to the activity
7,"GGGGG (RNA, backbone not given here; further chemistry not fully specified) [^33pGGGGG]",detrimental to the activity
8,"5′ UCU GCA GAU CAU GU 3′ (UCUGCAGAUCAUGU; RNA, backbone not given here) [SEQ ID NO: 26, 3′ terminus of HCV positive-strand RNA genome]",single-nucleotide incorporation was detected
9,"5′ ACCACCACCACCACCACCACC 3′ (ACCACCACCACCACCACCACC; RNA, backbone not given here) [(ACC)7]",single nucleotide incorporation was observed only when UTP was used
10,pGpC [GC],capable of priming nucleotide (AMP) incorporation
11,"5′ AUC AGG GGG CUG GC 3′ (AUCAGGGGGCUGGC; RNA, backbone not given here) [SEQ ID NO: 27, 3′ terminus of HCV negative-strand RNA genome]",single-nucleotide incorporation was detected; also recorded: higher overall activity
12,"5′ UCCUCCUCCUCCUCCUCCUCC 3′ (UCCUCCUCCUCCUCCUCCUCC; RNA, backbone not given here) [(UCC)7]","only the correct nucleotide, ATP or CTP, resulted in primer extension"

# Same assay, conditions: 5 μM template, 10 μM end-labeled primer, 100 μM NTP, 30° C. for 30 min; listed as 33pGG
row,Molecule,nucleotide incorporation (extension of end-labeled primer)
1,pGpG [GG],supported nucleotide incorporation with the highest efficiency

# Molecular target: HCV NS5B replicase (Hepatitis C virus genotype 1b, UniProt P26663)
# Sequence (P26663 2420-3010 limits assumed): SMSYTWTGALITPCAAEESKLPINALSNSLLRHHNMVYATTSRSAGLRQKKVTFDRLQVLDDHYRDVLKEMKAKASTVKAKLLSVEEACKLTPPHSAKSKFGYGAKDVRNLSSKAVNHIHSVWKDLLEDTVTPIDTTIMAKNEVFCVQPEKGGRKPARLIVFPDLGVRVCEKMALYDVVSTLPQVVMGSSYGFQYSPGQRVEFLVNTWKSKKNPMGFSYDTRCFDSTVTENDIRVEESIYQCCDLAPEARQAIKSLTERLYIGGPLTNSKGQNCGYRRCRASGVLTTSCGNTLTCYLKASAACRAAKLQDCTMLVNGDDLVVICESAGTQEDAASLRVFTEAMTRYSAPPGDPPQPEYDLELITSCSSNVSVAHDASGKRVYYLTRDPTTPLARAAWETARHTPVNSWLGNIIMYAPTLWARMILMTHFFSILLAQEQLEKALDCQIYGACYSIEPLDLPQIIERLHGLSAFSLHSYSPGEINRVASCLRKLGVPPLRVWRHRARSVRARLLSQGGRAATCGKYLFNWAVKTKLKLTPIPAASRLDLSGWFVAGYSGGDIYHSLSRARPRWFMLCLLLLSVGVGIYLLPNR
# Experiment: not given
# Details: cited from earlier work
row,Molecule,inhibition of HCV NS5B replicase
1,"CN1C(=O)[C@]23CC4=CC=C[C@H](O)[C@H]4N2C(=O)[C@@]1(CO)SS3 [Gliotoxin, gliotoxin]",inhibits HCV NS5B replicase in a dose dependent manner

# Molecular target: poliovirus 3D RdRp (Poliovirus type 1, UniProt P03300)
# Sequence (P03300 1749-2209 limits assumed): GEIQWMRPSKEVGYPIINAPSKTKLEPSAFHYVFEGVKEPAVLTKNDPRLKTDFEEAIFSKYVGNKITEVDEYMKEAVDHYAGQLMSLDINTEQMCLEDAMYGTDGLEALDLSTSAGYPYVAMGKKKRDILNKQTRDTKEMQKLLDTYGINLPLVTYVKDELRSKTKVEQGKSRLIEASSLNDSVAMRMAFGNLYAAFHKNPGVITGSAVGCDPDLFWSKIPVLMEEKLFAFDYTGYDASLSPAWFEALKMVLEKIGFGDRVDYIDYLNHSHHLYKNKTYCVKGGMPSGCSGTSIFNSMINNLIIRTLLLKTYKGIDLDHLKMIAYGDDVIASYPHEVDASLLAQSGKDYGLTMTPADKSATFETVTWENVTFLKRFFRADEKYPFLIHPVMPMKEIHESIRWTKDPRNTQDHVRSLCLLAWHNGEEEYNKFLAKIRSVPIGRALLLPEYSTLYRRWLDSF
# Experiment: not given
# Details: cited from earlier work
row,Molecule,inhibition of poliovirus 3D RdRp
1,"CN1C(=O)[C@]23CC4=CC=C[C@H](O)[C@H]4N2C(=O)[C@@]1(CO)SS3 [Gliotoxin, gliotoxin]",known poliovirus 3D RdRp inhibitor
